Legend:
[1] = system: CD4+ T cells; assay: Immunohistochemistry to detect CD4+ T cells in conjunctival epithelium of dry eye disease-induced mice; type: in vivo, mouse; conditions: bilateral topical administration of 5%; for CD4+ T cells infiltration into the conjunctival epithelium: DS-induced mice, result in words
Protocol: Enucleated mouse eyes with intact conjunctiva were suspended in optimal cutting temperature (OCT) compound and flash frozen in liquid nitrogen. Immunohistochemistry was performed on six-micrometer frozen sections to detect and count the number of cells in conjunctival epithelium that stained positively for CD4 (clone H129.9, 10 μg/mL; BD Biosciences® cat #553647), a biotinylated secondary antibody (BD Pharmingen® cat #559286), and NovaRED® peroxidase (Vector Laboratories® cat #SK-4800). Secondary antibody alone and anti-rat isotype (clone A110-2; BD Biosciences® cat #553992) controls were also examined. Positively stained cells were counted in the GC-rich area of the conjunctiva using image analysis software (Nikon NIS Elements® software) using a 10×objective. T-cell detection and quantification was performed on Arms 1, 2, 4, and 5 only. CD4+ T cells infiltration into the conjunctival epithelium is a primary clinical indicator of dry eye disease (DED), which is used here as a proxy to study immune cell infiltration into diseased tissue suffering from […].

[2] = system: photoreceptor precursor cells (PPCs); assay: Survival of AAGP-pretreated photoreceptor precursor cells after subretinal transplantation into rabbits with retinal degeneration; type: in vivo, Rabbit (Oryctolagus cuniculus); conditions: PPCs pre-treated in vitro 24 hours with 4 mg/mL; 6 months post subretinal transplantation; cyclosporine-A discontinued two weeks post transplantation; qualitative visual examination of flatmounts
Protocol: The objective of this study was to determine the effect of 24-hour pretreatment with anti-aging glycoprotein (AAGP™) at 4 mg/mL on the long-term (6 months) survival and functional activity of photoreceptor precursor cells (PPCs) following their subretinal transplantation into the eye of rabbits with retinal degeneration.
PPCs were generated in vitro from pluripotent human embryonic stem cells (hESCs) and incubated for 24 hours in media alone (control group) or media containing 4 mg/mL AAGP™ Following incubation, treated and untreated PPCs were labeled and injected into the subretinal space of the eye of immunosuppressed rabbits with induced retinal degeneration (4-5 rabbits/group). Animals were euthanized 6 month later, retinas were collected, and cell survival was determined in excised retinal flatmounts by imaging with confocal laser scanning system. The functional activity of transplanted cells was assessed by immunostaining for synaptic (Ribeye and Bassoon) and photoreceptor markers (Arrestin and Blue Opsin).
Retinal degeneration was induced on Day 1 of the study. […]

[3] = DS5 mice, conjunctival epithelium

## C[C@H](NC(=O)[C@H](C)NC(=O)[C@@H](N)CCCCNC(=O)C(F)(F)C1(O)O[C@H](CO)[C@H](O)[C@H](O)[C@H]1O)C(=O)O.Cl (stereo partly drawn) [AAGP™]
[1]; [3]
  T-Cell Density, 25% Percentile: 0.3767
  T-Cell Density, 75% Percentile: 0.7663
  T-Cell Density, Maximum: 1.152
  T-Cell Density, Mean: 0.5644
  T-Cell Density, Median: 0.4907
  T-Cell Density, Minimum: 0.2307
[1]
  CD4+ T cells infiltration into the conjunctival epithelium: suppresses T-cell response
[1]; listed as PKX-001
  CD4+ T cells infiltration into the conjunctival epithelium: significantly reduced
[2]
  cell survival of transplanted PPCs: substantial increase
